Laboratory results taken from patent EP0770681A2, “T cell epitopes of the major allergens from ambrosia artemisiifolia” (IMMULOGIC PHARMACEUTICAL CORPORATION, priority 1992, dated 1993).
No end group written: not given here.

Assays:
[1] = tested on: Amb a I.1 stimulated T cell line plus APC; experiment: assessment of peptide toxicity in Amb a I.1 primed secondary T cell culture; assay type: cell-based, human
Protocol: This could reflect a potential toxic effect of the peptides in the T cell assays. To investigate this possibility, an assay was conducted to determine the ability of the peptides to inhibit T cell proliferation. Inhibition was defined as proliferation of a T cell line in response to the peptide which was less than half the proliferation of media control T cell lines plus autologous EBV transformed antigen presenting cells. […]

[2] = tested on: basophils present in heparinized whole blood; experiment: histamine release assay; assay type: cell-based, human; details: blood of ragweed-allergic patient #1273, similar in seven other patients; Amb a I.1 from 10 µg/ml in 10-fold dilutions, peptides 50 µg/ml to 0.08 µg/ml
Protocol: The histamine release assay used for these studies is based on the detection of an acylated derivative of histamine using a specific monoclonal antibody (Morel, A.M. and Delaage, M.A. (1988) J. Allergy Clin. Immunol. 82:646-654). The assay was performed in two steps: 1) the release of histamine from basophils present in heparinized whole blood in the presence of different concentrations of protein or peptide; and 2) the assay of histamine present in the supernatants of the release reactions following cell removal by centrifugation. The reagents for this second step are available commercially as a competitive radioimmunoassay from AMAC Inc. (Westbrook, ME).
Heparinized whole blood was drawn from ragweed allergic patients. […] The tubes were then centrifuged in a microfuge at 1500 RPM for 3 minutes and the supernatants were carefully removed and analyzed or stored at -20°C for later analysis. […]
For the competition radioimmunoassay, a 50 µl aliquot of each release supernatant was mixed with 150 µl of histamine release buffer (supplied with the kit from AMAC). […] The solutions were aspirated from the tubes and the radioactivity bound to the tube was measured on a gamma counter (Cobra 5005, Beckman, Inc.) for two minutes per tube. […]
Six or more 10-fold dilutions of Amb a I.1 starting at 10 µg/ml (approximately 0.66 µM) were analyzed. […]

peptide solubility = assay type: physicochemical; details: compared among Amb 2-18.1, Amb2-19.1, Amb2-20.1 and Amb2-21.1
Excerpt: Peptides Amb 2-18.1 (SEQ ID NO:126), Amb2-19.1 (SEQ ID NO:127), Amb2-20.1 (SEQ ID NO:128) and Amb2-21.1 (SEQ ID NO:129) correspond to different lengths of the original peptide which were synthesized (including the serine substitution at position 212) and analyzed to determine solubility. […] Thus, substitutions and/or amino acid additions to this peptide were made in order to further increase the solubility while maintaining T cell reactivity. For example, in peptides Amb2-22.1 (SEQ ID NO:130) and Amb2-23.1 (SEQ ID NO:131) isoleucine at position 201 was substituted with glutamic acid (Amb2-22.1) or lysine (Amb2-23.1) to lower the pI of the resulting peptide and avoid precipitation of the peptide at physiological pH. Similarly, the following peptides were also synthesized with various substitutions or additions designed to decrease the pI and increase the hydrophilicity of the peptide, each is shown in Figure 25: Amb2-26.1 (SEQ ID NO:132); Amb2-28.1 (SEQ ID NO:133); Amb2-30.1 (SEQ ID NO:134); Amb2-32.1 (SEQ ID NO:135); Amb2-33.1 (SEQ ID NO:136); Amb2-34.1 (SEQ ID NO:137); Amb2-35.1 (SEQ ID NO:138); Amb2-36.1 (SEQ ID NO:139); Amb2-37.1 (SEQ ID NO:140); and Amb2-38.1 (SEQ ID NO:141).

Sequence	# patients ([1]; patients with toxicity (proliferation less than half of media control) / patients tested)	(%)patients ([1]; percent of patients with toxicity (proliferation less than half of media control))	both ([1]; toxicity at 5 µg/ml and 50 µg/ml peptide, fraction of patients with toxicity)	low dose only ([1]; toxicity only at 5 µg/ml peptide, fraction of patients with toxicity)	high dose only ([1]; toxicity only at 50 µg/ml peptide, fraction of patients with toxicity)	histamine release [2]	solubility (peptide solubility)
KGTVGGKDGDIYTVTSELDDDVAN [AMB 1-2.1]	3/46	7%	0	2/3	1/3	no discernible histamine release	–
SISGSSQIWIDHSSLSKS [AMB2-19.1]	–	–	–	–	–	–	most soluble
